Reference: article PMC8952208, “Synthesis, Antiplasmodial, and Antileukemia Activity of Dihydroartemisinin–HDAC Inhibitor Hybrids as Multitarget Drugs” (Pharmaceuticals, 2022)

What was measured:
[1] = test system: acetylation of α-tubulin (marker of HDAC6 inhibition); assay: Immunoblotting, acetyl-α-tubulin in K562 cells; format: cell-based, human; conditions: 0.4 µM, 24 h
Method: (§1) K562 cells were treated with the indicated concentration of the compounds or vehicle control (DMSO) for 24 h. The recovered cell pellets were lysed with RIPA buffer (50 mM Tris-HCl pH 8.0, 1% Triton X-100, 0.5% sodium deoxycholate, 0.1% SDS, 150 mM sodium chloride, and 2 mM EDTA), supplemented with protease and phosphatase inhibitors (Thermofischer Scientific, Waltham, MA, USA). An equal amount of total protein (20 µg) was resolved by SDS-PAGE and followed by transfer on nitrocellulose membrane (Sigma-Aldrich). PageRuler prestained protein ladder, 10 kDa to 180 kDa (Thermofisher Scientific, Waltham, MA, USA) was used as a protein molecular weight marker.

[2] = test system: acetylation of histone H3 (marker of HDAC1 inhibition); assay: Immunoblotting, acetyl-histone H3 in K562 cells; format: cell-based, human; conditions: 0.4 µM, 24 h
Method: as §1

## O=C(CCCCCCC(=O)Nc1ccccc1)NO [Vorinostat, vorinostat]
[1]
  acetylation of α-tubulin (immunoblot): caused hyperacetylation of α-tubulin and histone H3
[2]
  acetylation of histone H3 (immunoblot): caused hyperacetylation of α-tubulin and histone H3
